Test results reported in the NIST ThermoML archive (doi:10.1016/j.jct.2010.04.026).
Values joined by “and” are separate entries in the source; they are usually repeats but may differ in a detail not shown here. Equal values may be shown once.

Conditions: Crystal; for mass density: 295.1 K, 101.33 kPa, pellet size and mass; for vapor or sublimation pressure: Calculated from knudsen effusion weight loss

Nc1ccc2[nH]ncc2c1 [5-aminoindazole]
Conditions | mass density [kg/m3] | vapor or sublimation pressure
– | 1400 | –
358.12 K | – | 8.43e-05 kPa and 8.3e-05 kPa
360.18 K | – | 0.000101 kPa and 0.0001064 kPa and 0.000103 kPa
362.16 K | – | 0.0001305 kPa and 0.0001265 kPa and 0.0001259 kPa
364.11 K | – | 0.0001563 kPa and 0.0001589 kPa and 0.0001556 kPa
366.17 K | – | 0.0001991 kPa and 0.0001966 kPa and 0.0001879 kPa
368.17 K | – | 0.0002397 kPa and 0.0002332 kPa and 0.0002247 kPa
370.13 K | – | 0.0002948 kPa and 0.0002986 kPa
372.18 K | – | 0.0003483 kPa and 0.0003696 kPa and 0.0003499 kPa
374.15 K | – | 0.0004435 kPa and 0.0004334 kPa and 0.0004198 kPa
376.13 K | – | 0.0005419 kPa and 0.000534 kPa and 0.0005297 kPa
378.17 K | – | 0.0006618 kPa and 0.000668 kPa and 0.0006232 kPa
380.16 K | – | 0.0007639 kPa and 0.0007696 kPa and 0.0007519 kPa

Nc1ccc2cn[nH]c2c1 [6-aminoindazole]
Conditions | mass density [kg/m3] | vapor or sublimation pressure
– | 1450 | –
366.14 K | – | 0.0001031 kPa and 0.0001023 kPa and 0.0001025 kPa
368.17 K | – | 0.0001275 kPa and 0.0001257 kPa and 0.0001221 kPa
370.18 K | – | 0.0001528 kPa and 0.0001513 kPa and 0.0001468 kPa
372.14 K | – | 0.0001919 kPa and 0.0001878 kPa and 0.0001923 kPa
374.16 K | – | 0.0002356 kPa and 0.000234 kPa and 0.0002228 kPa
376.17 K | – | 0.0002875 kPa and 0.0002739 kPa
378.15 K | – | 0.0003523 kPa and 0.0003592 kPa and 0.0003463 kPa
380.16 K | – | 0.0004332 kPa and 0.000428 kPa and 0.0004138 kPa
382.17 K | – | 0.0005244 kPa and 0.0005044 kPa and 0.0005114 kPa
384.15 K | – | 0.0006281 kPa and 0.0006132 kPa and 0.0006304 kPa
386.16 K | – | 0.0007813 kPa and 0.0007708 kPa and 0.0007396 kPa
388.17 K | – | 0.0009109 kPa and 0.0008984 kPa and 0.0008878 kPa
